US8846741B2, “N-substituted aminobenzocycloheptene, aminotetraline, aminoindane and phenalkylamine derivatives, pharmaceutical compositions containing them, and their use in therapy” (AbbVie Deutschland GmbH & Co. KG, priority 2011, dated 2014)

Key:
human GlyT1c transporter = human GlyT1c transporter (Homo sapiens (Human), UniProt P48067); assay: Radioligand binding assay using recombinant CHO cell membranes expressing human GlyT1; details: read-out: radioligand binding Kiapp
Procedure: 2. Radioligand Binding Assays Using Recombinant CHO Cell Membranes Expressing Human GlyT1:
Radioligand binding to human GlyT1c transporter-expressing membranes was determined as described in Mezler et al., Molecular Pharmacology 74:1705-1715, 2008.

MDR1 (P-gp) = MDR1 (P-gp) (Homo sapiens (Human), UniProt P08183); assay: Efflux ratio in MDR1-MDCK bidirectional transport; format: in vitro ADME; details: dog; MDR1-MDCK cell monolayers, 1 μM in HBSS-pH 7.4, 1 h incubation at 37 C
Procedure: 3. Determination of Efflux Ratio Using Madin-Darby Canine Kidney Type II Cells
Bidirectional transport experiments were performed on Madin-Darby Canine Kidney Type II cells over-expressing multidrug resistance protein 1 (MDR1-MDCK) to evaluate the compounds as potential P-gp substrates.
Compounds were added at 1 μM in HBSS-pH 7.4 (hanks balanced salt solution) to either the apical or basolateral side of MDR1-MDCK cell monolayers grown on Millicell 96-Cell polycarbonate filters. Samples were collected from both apical and basolateral sides at time 0 and after 1 h incubation at 37 C, compounds concentrations were measured by HPLC/MS/MS and permeability coefficients were then determined in both transport directions. The efflux ratio was subsequently calculated from the permeability coefficient.

Chain of human GlyT1c transporter (P48067 whole entry): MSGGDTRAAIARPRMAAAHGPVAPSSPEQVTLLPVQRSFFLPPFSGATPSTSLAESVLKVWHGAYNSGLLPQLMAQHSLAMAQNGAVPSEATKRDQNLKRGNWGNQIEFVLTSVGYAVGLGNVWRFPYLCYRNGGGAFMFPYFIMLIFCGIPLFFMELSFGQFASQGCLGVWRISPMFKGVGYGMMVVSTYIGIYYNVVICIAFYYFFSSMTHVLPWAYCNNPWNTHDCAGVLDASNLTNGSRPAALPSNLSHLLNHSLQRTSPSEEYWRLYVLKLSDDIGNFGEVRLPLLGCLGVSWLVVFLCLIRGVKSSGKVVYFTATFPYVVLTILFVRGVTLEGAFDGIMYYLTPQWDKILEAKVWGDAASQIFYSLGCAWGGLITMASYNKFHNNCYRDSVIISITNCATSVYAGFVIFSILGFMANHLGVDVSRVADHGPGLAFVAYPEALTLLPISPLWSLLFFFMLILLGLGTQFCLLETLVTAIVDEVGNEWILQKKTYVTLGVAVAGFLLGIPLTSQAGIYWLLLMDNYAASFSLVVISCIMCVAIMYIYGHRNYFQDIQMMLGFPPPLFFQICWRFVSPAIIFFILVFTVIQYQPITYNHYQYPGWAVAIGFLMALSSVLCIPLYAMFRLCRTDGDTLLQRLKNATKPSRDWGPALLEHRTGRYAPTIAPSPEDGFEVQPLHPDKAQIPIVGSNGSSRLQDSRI
Chain of MDR1 (P-gp) (P08183 whole entry, species assumed): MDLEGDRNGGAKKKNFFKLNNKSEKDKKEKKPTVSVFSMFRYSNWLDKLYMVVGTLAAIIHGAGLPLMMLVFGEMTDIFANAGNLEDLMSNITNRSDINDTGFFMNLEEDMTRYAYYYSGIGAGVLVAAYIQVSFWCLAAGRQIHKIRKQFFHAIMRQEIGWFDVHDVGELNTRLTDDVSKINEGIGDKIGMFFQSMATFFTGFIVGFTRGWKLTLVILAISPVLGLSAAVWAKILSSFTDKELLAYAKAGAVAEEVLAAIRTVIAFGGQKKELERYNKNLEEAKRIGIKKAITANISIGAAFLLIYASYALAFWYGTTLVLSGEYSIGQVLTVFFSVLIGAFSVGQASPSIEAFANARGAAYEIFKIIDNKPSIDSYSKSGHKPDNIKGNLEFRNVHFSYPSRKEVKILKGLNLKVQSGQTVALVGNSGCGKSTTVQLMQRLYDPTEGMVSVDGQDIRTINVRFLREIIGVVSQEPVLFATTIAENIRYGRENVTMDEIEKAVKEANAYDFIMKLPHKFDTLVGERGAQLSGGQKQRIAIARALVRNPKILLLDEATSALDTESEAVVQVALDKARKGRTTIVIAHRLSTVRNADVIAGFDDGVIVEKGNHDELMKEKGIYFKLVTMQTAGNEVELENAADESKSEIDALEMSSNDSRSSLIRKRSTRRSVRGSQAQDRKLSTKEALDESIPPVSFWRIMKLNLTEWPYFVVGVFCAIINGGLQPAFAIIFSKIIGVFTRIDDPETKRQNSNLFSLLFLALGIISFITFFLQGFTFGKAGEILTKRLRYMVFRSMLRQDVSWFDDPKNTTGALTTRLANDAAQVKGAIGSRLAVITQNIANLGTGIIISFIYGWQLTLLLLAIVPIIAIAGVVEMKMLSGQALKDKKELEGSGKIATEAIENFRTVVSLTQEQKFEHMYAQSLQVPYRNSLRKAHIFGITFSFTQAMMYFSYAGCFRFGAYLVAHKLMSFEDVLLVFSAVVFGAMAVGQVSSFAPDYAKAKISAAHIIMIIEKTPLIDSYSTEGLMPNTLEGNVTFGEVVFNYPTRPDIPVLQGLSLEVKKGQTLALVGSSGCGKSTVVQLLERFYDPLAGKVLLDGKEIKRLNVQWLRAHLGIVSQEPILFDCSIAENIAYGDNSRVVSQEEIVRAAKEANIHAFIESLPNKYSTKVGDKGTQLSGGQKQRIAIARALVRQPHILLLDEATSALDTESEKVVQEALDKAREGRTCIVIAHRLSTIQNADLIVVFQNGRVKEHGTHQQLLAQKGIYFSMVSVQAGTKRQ

| Structure (SMILES) | Ki (human GlyT1c transporter) | efflux ratio at 1 h, 1 μM (MDR1 (P-gp)) |
| --- | --- | --- |
| N#CC1(NC2CCc3ccc(CNS(=O)(=O)C4CCC4)cc3C2Cc2ccccc2)COC1 (centres unmarked) [Example 8, N-((8-Benzyl-7-(3-cyanooxetan-3-ylamino)-5,6,7,8-tetrahydronaphthalen-2-yl)methyl)cyclobutanesulfonamide] | < 1000 nM | – |
| N#CC1(NC2CCc3ccc(CNS(=O)(=O)CC4CC4)cc3C2Cc2ccccc2)COC1 (centres unmarked) [Example 9, N-((8-Benzyl-7-(3-cyanooxetan-3-ylamino)-5,6,7,8-tetrahydronaphthalen-2-yl)methyl)-1-cyclopropylmethanesulfonamide] | < 100 nM | 3.5 |
| Cn1cnc(S(=O)(=O)NCCOc2ccc3c(c2)C(Cc2ccccc2F)C(N2CC4CC4C2)CC3)c1 (centres unmarked) [Example 5, N-(2-{[7-[3-Azabicyclo[3.1.0]hex-3-yl]-8-(2-fluorobenzyl)-5,6,7,8-tetrahydronaphthalen-2-yl]oxy}ethyl)-1-methyl-1H-imidazole-4-sulfonamide] | < 1000 nM | – |
| Cn1cnc(S(=O)(=O)NCCOc2cc3c(cc2C#N)CCC(N2CC4CC4C2)C3Cc2ccccc2)c1 (centres unmarked) [Example 10, N-[2-({7-[3-Azabicyclo[3.1.0]hex-3-yl]-8-benzyl-3-cyano-5,6,7,8-tetrahydronaphthalen-2-yl}oxy)ethyl]-1-methyl-1H-imidazole-4-sulfonamide(2E)-but-2-enedioate] | < 1000 nM | – |
| Cn1cc(S(=O)(=O)NCCOc2ccc3c(c2)C(Cc2ccccc2)C(N2CC4CC4C2)CC3)cn1 (centres unmarked) [Example 3, N-[2-({7-[3-Azabicyclo[3.1.0]hex-3-yl]-8-benzyl-5,6,7,8-tetrahydronaphthalen-2-yl}oxy)ethyl]-1-methyl-1H-pyrazole-4-sulfonamide(2E)-but-2-enedioate] | < 10 nM | – |
| Cn1cnc(S(=O)(=O)NCc2ccc3c(c2)C(Cc2ccccc2)C(N2CC4CC4C2)CC3)c1.O=C(O)/C=C/C(=O)O (stereo not drawn) [Example 1, cis-N-({7-[3-Azabicyclo[3.1.0]hex-3-yl]-8-benzyl-5,6,7,8-tetrahydronaphthalen-2-yl}methyl)-1-methyl-1H-imidazole-4-sulfonamide(2E)-but-2-enedioate] | < 10 nM | 3.2 |
| CCS(=O)(=O)NCc1ccc2c(c1)C(Cc1ccccc1)C(NC1(C#N)COC1)CC2 (centres unmarked) [Example 6, N-((8-Benzyl-7-(3-cyanooxetan-3-ylamino)-5,6,7,8-tetrahydronaphthalen-2-yl)methyl)ethanesulfonamide] | < 1000 nM | – |
| CCCS(=O)(=O)NCc1ccc2c(c1)C(Cc1ccccc1)C(NC1(C#N)COC1)CC2 (centres unmarked) [Example 7, N-((8-Benzyl-7-(3-cyanooxetan-3-ylamino)-5,6,7,8-tetrahydronaphthalen-2-yl)methyl)propane-1-sulfonamide] | < 1000 nM | – |
| Cn1cnc(S(=O)(=O)NCCOc2ccc3c(c2)C(Cc2ccccc2)C(N2CC4CC4C2)CC3)c1 (centres unmarked) [Example 2, N-[2-({7-[3-Azabicyclo[3.1.0]hex-3-yl]-8-benzyl-5,6,7,8-tetrahydronaphthalen-2-yl}oxy)ethyl]-1-methyl-1H-imidazole-4-sulfonamide(2E)-but-2-enedioate] | < 10 nM | – |
